Data from patent publication US9332764B2, “Aqueous composition for inactivating sporulated and/or non-sporulated coccidian parasites” (Ecolab USA Inc., priority 2007, dated 2016).
“Also recorded” adds a separate entry of the source.

How the values were obtained:
Eimeria oocysts = settings: cited from earlier work
[1] = test system: non-sporulated oocysts of Eimeria papillata; test: Incubation of fresh non-sporulated oocysts, then check for sporulation after one week at 25° C.; type: cell-based; settings: incubation 60 min; for result (sporulation): room temperature, no surfactant
Procedure: (§1) For the experiments 20 g female Balb/C-mice were used. […] The flotation medium was prepared containing 124.5 g NaCl and 435.8 g saccharide which was diluted with water and filled up to 1 litre. Fresh non-sporulated oocysts were prepared. Subsequently the Balb/C-mice were infected with 20,000 sporulated oocysts. From the fourth day after infection, fresh mouse excrement is collected and isolated by flotation. Residual flotation medium is removed by washing three times with clean water.
(§2) A chlorine dioxide solution is prepared by mixing a solution containing sodium chlorite and an acidic solution. By reaction chlorine dioxide is produced. The solution comprises 120 ppm chorine dioxide. By further dilution, chlorine dioxide solutions of 40, 20, 10, 4, 1, and 0.5 ppm are produced which are immediately used for the experiments.
Oocysts of Eimeria papillata were filtered from fresh mice excrements and incubated for 60 min with freshly produced chlorine dioxide solution at concentrations of 40, 20, 10, 4, 1, 0.5 ppm at room temperature. After 60 min incubation time the oocyst suspensions were washed with water and cultured for sporulation in 1 ml water. The probes were incubated for one week at 25° C. As control a non-treated, non-sporulated oocyst sample was used which was also incubated for one week at 25° C. After seven days it was checked if a sporulation occurred. (see table 1)
In the same way experiments were carried out with the aqueous composition according to the invention comprising chlorine dioxide and as an anionic surfactant Dofax 2A1 (Dow Chemicals) which is a mixture of a disodium oxybis(dodecyl benzenesulfonate) and a dodecyl(sulfophenoxy)disodium salt of benzene sulfonic acid. The composition comprises between 0.5 to 25 ppm chlorine dioxide and 0.2 wt. % of the anionic surfactant. (see table 2)

[2] = test system: sporulated oocysts of Eimeria papillata; test: Infection of mice with treated sporulated oocysts, excretion of oocysts in excrements; type: in vivo, Eimeria papillata in Balb/C-mice; parameters: key to excretion 4 dpi / excretion 5 dpi / excretion 6 dpi / excretion 7 dpi: +++: massive excretion of oocysts; ++: excretion of many oocysts; +: excretion of few oocysts; −: no oocysts detectable; settings: for excretion 4 dpi / excretion 5 dpi / excretion 6 dpi / excretion 7 dpi: 60 min; for excretion 4 dpi: 4 days after infection; for excretion 5 dpi: 5 days after infection; for excretion 6 dpi: 6 days after infection; for excretion 7 dpi: 7 days after infection
Procedure: as §1
Sporulated infectious oocysts were incubated at 25° C. for one week.
as §2
A further series of experiments was performed in order to evaluate the inactivation pattern of sporulated oocysts. […] After that the oocyst suspensions were washed with water for three times and 20,000 oocysts were orally administered to a mouse. Per concentration one mouse was used. In addition two mice were treated, each with 20,000 non-treated, sporulated oocysts for control purposes. From the fourth day after infection samples of the excrements of the mice were taken daily and the presence of oocysts of Eimeria papillata was examined. (see table 3) […]

[3] = test system: sporulated and/or non-sporulated Coccidian parasites; test: Inactivation of Coccidian parasites by chlorine dioxide solutions, general statements; settings: chlorine dioxide alone, concentrations below 120 ppm
Description: Therefore the disadvantage of the method described in JP 2004-210726 is that high concentrations of chlorine dioxide have to be used in order to sufficiently inactivate the Coccidian parasites. The inventors of the present invention have performed experiments to lower the limit of the concentration of chlorine dioxide in a solution which is still effective, inactivating Coccidian parasites.
In addition the inventors have also investigated whether combinations of chlorine dioxide with other surfactants like for example alkyl sulfonates, amine oxides, ethoxylated polyalcohols, quaternary ammonium compounds, lauryl hydroxy sulfane, and alkyl ether sulfates have an effect in combination with lower concentrations of chlorine dioxide.

[4] = test system: sporulated and/or non-sporulated Coccidian parasites; settings: preferably around 800 ppm; cited from earlier work
[5] = oocysts treated with ClO2 4 ppm
[6] = oocysts treated with ClO2 10 ppm
[7] = oocysts treated with ClO2 20 ppm
[8] = oocysts treated with ClO2 40 ppm
[9] = oocysts treated with ClO2 120 ppm
[10] = oocysts treated with ClO2 240 ppm

**Q.** For `OCl` [sodium hypochlorite], which “effectiveness for eradication of coccoid oocysts” value (“effectiveness for eradication” for short) (Eimeria oocysts) is on record?
**A.** ineffective

**Q.** Which “effectiveness for eradication” value (Eimeria oocysts) does the source give for `O=S(=O)(O)O` [sulfuric acid] here?
**A.** ineffective

**Q.** With `C=O` [formalin] as the compound, how does the “effectiveness for eradication” value (Eimeria oocysts) read?
**A.** ineffective

**Q.** For `[K+].[OH-]` [potassium hydroxide], which “effectiveness for eradication” value (Eimeria oocysts) is on record?
**A.** ineffective

**Q.** With `[K+].[K+].[O]=[Cr](=[O])([O-])[O][Cr](=[O])(=[O])[O-]` [potassium dichromate] as the compound, how does the “effectiveness for eradication” value (Eimeria oocysts) read?
**A.** ineffective

**Q.** Which “effectiveness for eradication” value (Eimeria oocysts) does the source give for benzalkonium chloride here?
**A.** ineffective

**Q.** With cresylic acid as the compound, how does the “effectiveness for eradication” value (Eimeria oocysts) read?
**A.** ineffective

**Q.** For `O=CCCCC=O` [glutaraldehyde], which “effectiveness for eradication” value (Eimeria oocysts) is on record?
**A.** ineffective

**Q.** For `[O][Cl+][O-]` [chlorine dioxide solution, chlorine dioxide], which “result (sporulation)” value ([1]; ClO2 0.5 ppm) is on record?
**A.** complete

**Q.** What about the “result (sporulation)” value ([1]; ClO2 1 ppm) of the same compound?
**A.** complete

**Q.** What about the “result (sporulation)” value ([1]; ClO2 4 ppm) of the same compound?
**A.** complete

**Q.** And the “result (sporulation)” value ([1]; ClO2 10 ppm)?
**A.** complete

**Q.** And the “result (sporulation)” value ([1]; ClO2 20 ppm)?
**A.** complete

**Q.** What about the “result (sporulation)” value ([1]; ClO2 40 ppm) of the same compound?
**A.** partial

**Q.** And the sporulation ([1]; chlorine dioxide only, concentrations below 40 ppm)?
**A.** complete or partial sporulation

**Q.** What about the “excretion of oocysts of Eimeria papillata in Balb/C-mice” value ([2]; chlorine dioxide between 4 and 40 ppm, incubation 60 min) of the same compound?
**A.** cannot be avoided

**Q.** And the detectable oocysts ([2]; concentrations of 120 ppm and 240 ppm)?
**A.** no detectable oocysts

**Q.** What about the “excretion 4 dpi” value [2, 5] of the same compound?
**A.** ++

**Q.** And the “excretion 5 dpi” value [2, 5]?
**A.** ++

**Q.** What about the “excretion 6 dpi” value [2, 5] of the same compound?
**A.** ++

**Q.** What about the “excretion 7 dpi” value [2, 5] of the same compound?
**A.** +

**Q.** What about the “excretion 4 dpi” value [2, 6] of the same compound?
**A.** ++

**Q.** What about the “excretion 5 dpi” value [2, 6] of the same compound?
**A.** ++

**Q.** What about the “excretion 6 dpi” value [2, 6] of the same compound?
**A.** ++

**Q.** What about the “excretion 7 dpi” value [2, 6] of the same compound?
**A.** +

**Q.** And the “excretion 4 dpi” value [2, 7]?
**A.** ++

**Q.** And the “excretion 5 dpi” value [2, 7]?
**A.** ++

**Q.** And the “excretion 6 dpi” value [2, 7]?
**A.** +

**Q.** And the “excretion 7 dpi” value [2, 7]?
**A.** +

**Q.** What about the “excretion 4 dpi” value [2, 8] of the same compound?
**A.** +

**Q.** What about the “excretion 5 dpi” value [2, 8] of the same compound?
**A.** +

**Q.** And the “excretion 6 dpi” value [2, 8]?
**A.** +

**Q.** And the “excretion 7 dpi” value [2, 8]?
**A.** +

**Q.** What about the “excretion 4 dpi” value [2, 9] of the same compound?
**A.** −

**Q.** And the “excretion 5 dpi” value [2, 9]?
**A.** −

**Q.** What about the “excretion 6 dpi” value [2, 9] of the same compound?
**A.** −

**Q.** And the “excretion 7 dpi” value [2, 9]?
**A.** −

**Q.** What about the “excretion 4 dpi” value [2, 10] of the same compound?
**A.** −

**Q.** And the “excretion 5 dpi” value [2, 10]?
**A.** −

**Q.** And the “excretion 6 dpi” value [2, 10]?
**A.** −

**Q.** What about the “excretion 7 dpi” value [2, 10] of the same compound?
**A.** −

**Q.** What about the “inactivation / eradication of coccoid organisms” value [3] of the same compound?
**A.** ineffective; also recorded: will not inactivate

**Q.** And the “chlorine dioxide concentration known to completely inactivate sporulated and/or non-sporulated Coccidian parasites” value [4]?
**A.** above 200 ppm

**Q.** With `CC(=O)OO` [peracetic acid] as the compound, how does the “effectiveness for eradication” value (Eimeria oocysts) read?
**A.** ineffective

**Q.** Which “effectiveness for eradication” value (Eimeria oocysts) does the source give for `O=S(=O)([O-])[O-].[Cu+2]` [copper sulfate] here?
**A.** ineffective

**Q.** Which “effectiveness for eradication” value (Eimeria oocysts) does the source give for `[I-].[K+]` [potassium iodide] here?
**A.** ineffective
